Test results from publication PMC6199279, “Design of Peptoid-peptide Macrocycles to Inhibit the β-catenin TCF Interaction in Prostate Cancer” (Nature Communications, 2018).
Numbered stars: 1 amine (or outer) side, 2 acyl side, 3 side chain; on linkers, the order of the positions; unused ones are H or OH. Square brackets hold non-standard residues; d marks the D form. Peptide text beside a SMILES is read from it. N(2-(2-PhOPh)Et)Gly = O=C(O)CNCCc1ccccc1Oc1ccccc1; Gly(N-3,5-(OMe)2-Ph) = COc1cc(NCC(=O)O)cc(OC)c1; X1 = COc1ccc([C@H](C)N(CC(=O)[*:2])[*:1])cc1; N((CH2)3OiPr)Gly = CC(C)OCCCNCC(=O)O

Assays:
[1] = tested on: TOP-Flash Wnt luciferase reporter; experiment: TOP-Flash Wnt luciferase reporter assay in LNCaP-abl cells; assay type: cell-based
Excerpt: Using a TOP-Flash Wnt luciferase reporter, we tested the 12 oligomers identified from in silico modeling for inhibitory activity (Fig. 2b). […] We also employed a 3 × -Androgen Response Element (ARE) luciferase reporter to measure the effect on AR activity. […] As additional controls, we obtained previously developed, commercially available Wnt inhibitors and tested them in the Wnt luciferase assay (Supplementary Fig. 5).
We next characterized the dose response curves for compound 13 in the Wnt and AR luciferase reporters. The linear version of 13 (linear 13: NH2-|N-mpp, N-dmp, N-ipp, N-Smpe, N-Smpe, D-Ala|-OH) was used as a control compound. […] To test direct binding, we pre-formed dynamic light scattering (DLS) with β-catenin in the presence of vehicle, compound 13, and α-cyclodextrin. […] HEK293 cells were transiently transfected with a plasmid expressing full length, myc-tagged TCF4. After 48 h treatment with either vehicle (DMSO) or 10 µM 13, cells were lysed and myc-TCF4 protein was immunoprecipitated.
LNCaP-abl and LNCaP-95 cells were cultured in indicator free RPMI 1640 media (Life) supplemented with 10% charcoal stripped FBS, 1% pennicillin/streptomycin, and 1% L-Glutamine. HEK-293 Cells were cultured in DMEM media (Life) supplemented with 10%FBS and 1% pennicillin/streptomycin. A549 and U2OS cells were cultured in RPMI 1640 media (Life) and McCoy’s 5 A modified media (Life), respectively, both supplemented with 10%FBS and 1% pennicillin/streptomycin. LNCaP-abl, and LNCaP-95 cell lines were generous gifts from Z. Culig (Innsbruck Medical University, Austria) and J. Isaacs (Johns Hopkins University, Baltimore, MD), respectively. Cell lines were authenticated by STR profiling (Genetica Cell Line Testing; Burlington, NC). A549 and U2OS were purchased from ATCC (product numbers CCL-185 and HTB-96). Cell lines were routinely screened for mycoplasma. Luciferase assays were conducted using stably transfected TOP-flash and 3xARE LNCaP-abl cell lines. For the Wnt pathway, TOP-Flash LNCaP-abl cells were treated with 1 nM siAPC (a 1:1:1 mix of Ambion Silencer Silect siAPC RNA, ID#s s1433, s1434, s1435) for 24 h and seeded into 384-well plates at 5000 cells/well, followed by 24 h of treatment with compound. For the AR-pathway, 3xARE LNCaP-abl cells were seeded into 384-well plates at 5000 cells per well, treated for 48 h with compound, with the addition of R1881 for the final 8 h. Both were measured using the ONE-Glo detection kit (Promega) and data is standardized to CellTiter-Fluor (Promega) viability readings to account for potential variations in well to well cell number. Control Wnt inhibitors were purchased from Sigma with the exception of PRI-724 which was purchased from Selleckchem. Co-immunoprecipitation was carried out using HEK293 cells transfected with either myc-TCF (addgene #32738) or myc-TCF dominant negative (addgene #32739) followed by 48 h of treatment with compound. Cells were lysed using Triton lysis buffer and 1 mg total protein was incubated overnight at 4 C with 40 µl anti-cMyc magnetic beads (Thermo). Total protein concentration in cell lysates were determined using Pierce Rapid Gold BCA Protein Assay Kit (Thermo). The beads were washed 3× with lysis buffer then boiled in 2X sample loading dye. SDS-PAGE and western blotting were performed using anti-Myc (CST 2276) and anti-β-catenin (CST 8480). Both antibodies were diluted in blocking buffer 1:1000 and incubated overnight at 4 C with the membrane. […]

[2] = tested on: LNCaP-abl and LNCaP-95 cells; experiment: RT-qPCR of Wnt and AR target genes; assay type: cell-based; settings: 10 µM, 24 h
Protocol: To test the effect of 13 in a model of prostate cancer, we used the LNCaP-abl and LNCaP-95 cell lines. These cell lines were derived from androgen-sensitive LNCaP cells, and passaged in androgen-deprived media to mimic the development of castration resistance in patient tumors[54],[55]. We first isolated mRNA from LNCaP-abl and LNCaP-95 cells treated with vehicle, 10 µM 13 and linear 13 for 24 h to check the expression of endogenous Wnt and AR target genes (Fig. 4a). […] AR-V7 is particularly challenging to target as most AR antagonists target the ligand binding domain. […] To check if the changes in Wnt and AR target gene expression translated into effects on growth, the viability of LNCaP-abl and LNCaP-95 cells was determined after 5 days of treatment (Fig. 4b).
Data are presented as mean and SD (n = 3) of three independent experiments (a) or representative of three independent experiments (b, c).
LNCaP-abl and LNCaP-95 cells were cultured in indicator free RPMI 1640 media (Life) supplemented with 10% charcoal stripped FBS, 1% pennicillin/streptomycin, and 1% L-Glutamine. HEK-293 Cells were cultured in DMEM media (Life) supplemented with 10%FBS and 1% pennicillin/streptomycin. A549 and U2OS cells were cultured in RPMI 1640 media (Life) and McCoy’s 5 A modified media (Life), respectively, both supplemented with 10%FBS and 1% pennicillin/streptomycin. LNCaP-abl, and LNCaP-95 cell lines were generous gifts from Z. Culig (Innsbruck Medical University, Austria) and J. Isaacs (Johns Hopkins University, Baltimore, MD), respectively. Cell lines were authenticated by STR profiling (Genetica Cell Line Testing; Burlington, NC). A549 and U2OS were purchased from ATCC (product numbers CCL-185 and HTB-96). Cell lines were routinely screened for mycoplasma. Luciferase assays were conducted using stably transfected TOP-flash and 3xARE LNCaP-abl cell lines. For the Wnt pathway, TOP-Flash LNCaP-abl cells were treated with 1 nM siAPC (a 1:1:1 mix of Ambion Silencer Silect siAPC RNA, ID#s s1433, s1434, s1435) for 24 h and seeded into 384-well plates at 5000 cells/well, followed by 24 h of treatment with compound. For the AR-pathway, 3xARE LNCaP-abl cells were seeded into 384-well plates at 5000 cells per well, treated for 48 h with compound, with the addition of R1881 for the final 8 h. Both were measured using the ONE-Glo detection kit (Promega) and data is standardized to CellTiter-Fluor (Promega) viability readings to account for potential variations in well to well cell number. Control Wnt inhibitors were purchased from Sigma with the exception of PRI-724 which was purchased from Selleckchem. Co-immunoprecipitation was carried out using HEK293 cells transfected with either myc-TCF (addgene #32738) or myc-TCF dominant negative (addgene #32739) followed by 48 h of treatment with compound. Cells were lysed using Triton lysis buffer and 1 mg total protein was incubated overnight at 4 C with 40 µl anti-cMyc magnetic beads (Thermo). Total protein concentration in cell lysates were determined using Pierce Rapid Gold BCA Protein Assay Kit (Thermo). The beads were washed 3× with lysis buffer then boiled in 2X sample loading dye.

COc1ccc([C@H](C)N2CC(=O)N[C@H](C)C(=O)N(CCc3ccccc3Oc3ccccc3)CC(=O)N(c3cc(OC)cc(OC)c3)CC(=O)N(CCCOC(C)C)CC(=O)N([C@@H](C)c3ccc(OC)cc3)CC2=O)cc1 [Compound 13] (cyclo([dA][N(2-(2-PhOPh)Et)Gly][Gly(N-3,5-(OMe)2-Ph)][N((CH2)3OiPr)Gly][X1][X1]))
Wnt inhibitory activity (TOP-Flash luciferase) ([1]; 10 µM compound, relative to vehicle): more effective | IC50 ([1]; TOP-Flash LNCaP-abl cells, siAPC knockdown, 24 h compound, ± SD of three replicates, read-out: IC50 for Wnt luciferase inhibition): 105 nM | AR mRNA [2]: decreased | AR-V7 transcription [2]: decreased | Cyclin D1 mRNA [2]: decreased | E-cadherin transcription [2]: increased | FKBP5 mRNA [2]: decreased | PSA mRNA [2]: decreased | cMYC mRNA [2]: decreased
